Experimental data: paper PMC12022903, “Evaluation of drug-drug interaction between Suraxavir Marboxil (GP681) and itraconazole, and assessment of the impact of gene polymorphism” (Frontiers in Pharmacology, 2025)
Where “and” joins values, the source holds several entries; their conditions need not be identical. Equal values may be shown once.

Assay: Pharmacokinetic parameters of GP1707D07 (HPLC-MS/MS, non-compartmental) in the GP681-itraconazole drug-drug interaction study
Assay type: in vivo, healthy Chinese subjects
Details: for Cmax / MRT0-t / MRT0-∞ / Tmax / Vz/F / t1/2 / λz / AUC0-t / AUC0-∞ / AUC_%Extrap / CL/F: Period 2, GP681 20 mg + itraconazole
Experimental: This single-center, open-label, self-controlled, fixed-sequence study, sponsored by Qingfeng Pharmaceutical Group Co., Ltd., was conducted at a single clinical research site in the China–Japan Friendship Hospital (Beijing, China). Each subject received the following treatment: Suraxavir Marboxil (GP681) 20 mg in the fasted state on day 1 and day 26. Itraconazole capsules (Sporanox®: Xi’an Yangsen Pharmaceutical Co., Ltd., China) 0.2 g twice daily (BID, bis in die) on day 22. Itraconazole 0.2 g daily from day 23 to day 36 [including day 26, when itraconazole was co-administrated with Suraxavir Marboxil (GP681)]. The washout period is 21 days (Figure 2). It should be noted that in the following sections, when discussing the PK profile, this study was divided into Period 1 (Suraxavir Marboxil (GP681) monotherapy, from day −1 to day 12), and Period 2 (Suraxavir Marboxil (GP681)-itraconazole co-administration, from day 21 to day 36). When discussion the safety profile, this study was divided into Stage 1 (Suraxavir Marboxil (GP681) monotherapy stage, from day 1 to day 21), Stage 2 (itraconazole monotherapy stage, from day 22 to day 25), and Stage 3 (Suraxavir Marboxil (GP681)-itraconazole co-administration stage, from d 26 to d 36).
Blood samples were collected at the following time points: pre–dose, 0.5, 1, 2, 3, 4, 5, 6, 8, 12, 24, 36, 48, 72, 120, 168, and 264 h post-dose on day 1 and day 26. In addition, a blood sample were collected before dosing on day 1 for genetic polymorphism assessment.
A validated high-performance liquid chromatography-tandem mass spectrometry (HPLC-MS/MS) method was used to determine plasma concentrations of Suraxavir Marboxil (GP681) and its active metabolite GP1707D07 at different times, with the quantification range of 0.3/0.3–300/300 ng/mL for Suraxavir Marboxil (GP681) and GP1707D07. The lower limit of quantification (LLOQ) for both compounds was 0.300 ng/mL. Phoenix® WinNonlin® 8.3 was used to estimate and analyze the pharmacokinetic parameters of non-compartmental model from plasma concentration data. Pharmacokinetic parameters included: maximum plasma concentration (Cmax), area under the plasma concentration-time curve extrapolated from time zero to infinity (AUC0- ∞ ), time to Cmax (Tmax), half-life (t1/2), λz, AUC_%Extrap, Vz/F, CL/F, and mean residence time (MRT).
Statistical analysis was performed using SAS (version 9.4 or above) software programming. Pharmacokinetic concentration analysis was based on Pharmacokinetic Analysis Concentration Set (PKCS). Individual and mean concentrations (mean ± SD) were plotted against planned blood sampling time points for the analyte on linear and semi-log scales. Pharmacokinetic parameter analysis was based on Pharmacokinetic Analysis Parameter Set (PKPS). Drug interaction analysis was based on Drug Interaction Set (DIS). The geometric mean ratios and their 90% confidence intervals of pharmacokinetic parameters Cmax, AUC0-t, and AUC0- ∞ under Suraxavir Marboxil (GP681) single dose and Suraxavir Marboxil (GP681)-itraconazole co-administration conditions were calculated after natural logarithm transformation, using a linear mixed effects model with subjects as random effects and treatment (combined/single) as fixed effects.
1.3 Pharmacokinetic Sample Collection and Processing: Pharmacokinetic Analysis: Approximately 4 mL of blood is collected each time into a tube containing sodium fluoride/potassium oxalate as an anticoagulant. The tube is then placed upright in an ice-water bath. The plasma samples are separated by centrifugation for the detection of GP681/GP1707D07 blood drug concentrations. Both sample collection and processing are conducted under white light conditions. […]

[1] = mean (SD), N = 4 (8 subjects with %AUCextrap >20% not included)

## O=C1c2c(O)c(=O)ccn2N([C@@H]2c3ccccc3SCc3c2ccc(F)c3F)[C@@H]2COC3(CC3)CN12 [GP1707D07]
Geometric mean, N=12
  Cmax: 22.0 ng/mL and 22.0359 ng/mL
  MRT0-t: 91.828 h
  MRT0-∞: 170.5 h and 170.494 h
  Tmax: 4.4 h
  Vz/F: 1365.672 L
  t1/2: 125.561 h
  λz: 0.0055 h⁻¹
Individual subjects
  AUC0-t: 2991.14 ng·h/mL and 2032.39 ng·h/mL and 1353.85 ng·h/mL and 2127.20 ng·h/mL and 1044.79 ng·h/mL and 2764.96 ng·h/mL and 1661.62 ng·h/mL and 2484.54 ng·h/mL and 2488.27 ng·h/mL and 2757.79 ng·h/mL and 1586.83 ng·h/mL and 2524.54 ng·h/mL and 2991.1 ng·h/mL and 2032.4 ng·h/mL and 1353.9 ng·h/mL and 1044.8 ng·h/mL and 2765.0 ng·h/mL and 1661.6 ng·h/mL and 2484.5 ng·h/mL and 2488.3 ng·h/mL and 2757.8 ng·h/mL and 1586.8 ng·h/mL and 2524.5 ng·h/mL
  AUC0-∞: 4071.31 ng·h/mL and 2952.73 ng·h/mL and 1815.81 ng·h/mL and 2809.94 ng·h/mL and 1322.58 ng·h/mL and 3386.84 ng·h/mL and 1943.92 ng·h/mL and 3038.12 ng·h/mL and 3010.01 ng·h/mL and 3496.61 ng·h/mL and 2164.09 ng·h/mL and 3287.23 ng·h/mL
  AUC_%Extrap: 26.53% and 31.17% and 25.44% and 24.30% and 21.00% and 18.36% and 14.52% and 18.22% and 17.33% and 21.13% and 26.67% and 23.20%
  CL/F: 4.91 L/h and 6.77 L/h and 11.01 L/h and 7.12 L/h and 15.12 L/h and 5.91 L/h and 10.29 L/h and 6.58 L/h and 6.64 L/h and 5.72 L/h and 9.24 L/h and 6.08 L/h
  Cmax: 30.409 ng/mL and 21.586 ng/mL and 13.021 ng/mL and 20.877 ng/mL and 9.944 ng/mL and 32.652 ng/mL and 20.426 ng/mL and 33.588 ng/mL and 31.705 ng/mL and 26.988 ng/mL and 14.549 ng/mL and 26.492 ng/mL and 30.4 ng/mL and 21.6 ng/mL and 13.0 ng/mL and 20.9 ng/mL and 9.9 ng/mL and 32.7 ng/mL and 20.4 ng/mL and 33.6 ng/mL and 31.7 ng/mL and 27.0 ng/mL and 14.5 ng/mL and 26.5 ng/mL
  MRT0-t: 95.36 h and 94.95 h and 95.71 h and 95.46 h and 92.09 h and 90.98 h and 84.46 h and 87.34 h and 83.83 h and 94.91 h and 93.53 h and 94.49 h
  MRT0-∞: 196.38 h and 225.05 h and 182.53 h and 178.20 h and 165.60 h and 151.62 h and 129.66 h and 149.99 h and 143.87 h and 168.40 h and 198.32 h and 178.88 h
  Tmax: 6 h and 4 h and 5 h and 3 h
  Vz/F: 1042.08 L and 1684.38 L and 1909.99 L and 1224.96 L and 2694.46 L and 929.93 L and 1355.33 L and 1100.32 L and 1104.05 L and 1021.99 L and 2056.61 L and 1181.94 L
  t1/2: 147.04 h and 172.37 h and 120.20 h and 119.29 h and 123.51 h and 109.15 h and 91.31 h and 115.86 h and 115.17 h and 123.85 h and 154.25 h and 134.65 h
  λz: 0.005 h⁻¹ and 0.004 h⁻¹ and 0.006 h⁻¹ and 0.008 h⁻¹
  AUC0-t Ratio Period 2/Period 1: 7.8 and 2.8 and 1.7 and 2.2 and 1.8 and 1.4 and 1.9 and 2.0 and 2.1
  Cmax Ratio Period 2/Period 1: 8.0 and 1.7 and 0.8 and 1.8 and 1.3 and 1.6 and 1.1 and 0.6
[1]
  AUC0-∞: 2,844.7 (624.5) (N = 4) h*ng/mL
  CL/F: 7.4 (2.0) (N = 4) L/h
  Vz/F: 1,122.4 (175.2) (N = 4) L
  t1/2: 107.9 (11.4) (N = 4) h
  λz: 0.007 (0.0008) (N = 4) h-1
mean, all 12 subjects
  AUC_%Extrap: 22.3 (4.8) % and 22.324%
  CL/F: 8.0 (2.9) L/h and 7.951 L/h
  Cmax: 23.5 (8.1) ng/mL and 23.5198 ng/mL
  MRT0-t: 91.9 (4.4) h and 91.926 h
  MRT0-∞: 172.4 (26.7) h and 172.374 h
  Tmax: 4.5 h
  t1/2: 127.2 (21.8) h and 127.221 h
  λz: 0.006 (0.0009) h-1 and 0.0056 h-1
Median (range), N=12
  Tmax: 4.5 (3.0–6.0) h
median, N=12
  AUC0-t: 2305.872 ng·h/mL
  AUC0-∞: 2981.370 ng·h/mL
  AUC_%Extrap: 22.166%
  CL/F: 6.709 L/h
  Cmax: 24.0390 ng/mL
  MRT0-t: 94.010 h
  MRT0-∞: 173.300 h
  Vz/F: 1203.452 L
  t1/2: 121.852 h
  λz: 0.0057 h⁻¹
Period 2, GP681 + itraconazole, statistic not stated (discussion)
  half-life: 107.4 h
Arithmetic means
  increase of AUC0-t in Period 2 compared to Period 1: 107%
  increase of AUC0-∞ in Period 2 compared to Period 1: 153%
  increase of Cmax in Period 2 compared to Period 1: 22%
